Results on eight compounds are retold here after patent US9845302B2, “Anticancer compounds and process for the preparation thereof” (Council of Scientific and Industrial Research, priority 2013, dated 2017).

One assay deals with adhesion of leukemia HL-60 cells to human-umbilical-vein endothelial cells (HUVEC).
Test: not given
To be noted: HL-60 cells to HUVEC; background statement; cited from earlier work.
In the case of `C=C1CO[C@@H](OC)[C@]12C[C@@H]1C[C@@H](O)C[C@@H](C)[C@]1(C)[C@H]2O` (racemic) [Peribysin E, (1′R,2R,2′R,3a′R,5′S,7′R,7a′S)-2-methoxy-7′,7a′-dimethyl-4-methylenedecahydro-2H-spiro[furan-3,2′-indene]-1′,5′-diol, reference compound], the “cell adhesion inhibitory activity” value was “inhibit adhesion of leukemia HL-60 cells to human-umbilical-vein endothelial cells (HUVEC)”.

Consider `C=C1CO[C@@H](OC)[C@]12C[C@@H]1C[C@@H](O)C[C@@H](C)[C@]1(C)[C@H]2O` [(−)-peribysin E], for which the “cell adhesion inhibitory activity” value is “more potent activity than the gold standard herbimycin”.

The test system of the next assay is HL60-HUVEC cell adhesion. Kind of assay: HL60-HUVEC cell adhesion inhibition, 8 point dose dependent assay (TNF-α stimulated, Calcein AM fluorometric). It is filed as cell-based. To be noted: Homo sapiens; HUVEC dosed 2 hours with compound, 100 ng/mL TNF-α 4 hours, HL60 co-culture 30 mins. The protocol: Determination of Cell Adhesion Inhibition
An 8 point dose dependent assay was carried out to assess the IC50's of the test compounds.
10,000 HUVEC cells/well (passage number. 8) was seeded into a 96 well black clear bottom plate and cells were cultured for 4 days at 37° C. After the cell culture, HUVEC's were dosed with test compound and reference compound (peribysin E) at a top concentration of 100 μM (1:3 step down dilution-8 concentrations) and cells were cultured for 2 hours at 37° C. HUVEC's were treated with/without 100 ng/mL of TNF-α further cultured for 4 hours at 37° C. 100,000 HL60 cells/well (passage number. 16) was loaded with Calcein AM dye and co-cultured with HUVECs, and cells were cultured for 30 mins at 37° C. HL60-HUVEC cell adhesion was detected by a fluorometric method using a BMG Polarstar. (IC50=inhibition concentration at 50%). HL60-HUVEC Cell Adhesion-IC50 Assessment of Compound
A word on the IC50: it is the point on the concentration scale where inhibition reaches its midpoint. Consider `C=C1CO[C@@H](OC)[C@]12C[C@@H]1C[C@@H](O)C[C@@H](C)[C@]1(C)[C@H]2O` (racemic) [Peribysin E, (1′R,2R,2′R,3a′R,5′S,7′R,7a′S)-2-methoxy-7′,7a′-dimethyl-4-methylenedecahydro-2H-spiro[furan-3,2′-indene]-1′,5′-diol, reference compound], for which the IC50 was 6.9 to 12.2 µM.

As for `C=C1CO[C@@H](OC)[C@]12C[C@@H]1C[C@H](O)C[C@@H](C)[C@]1(C)[C@H]2O` (racemic) [Compound 11a, (1′R,2R,2′R,3a′R,5′R,7′R,7a′S)-2-methoxy-7′,7a′-dimethyl-4-methylene decahydro-2H-spiro[furan-3,2′-indene]-1′,5′-diol], the IC50 was 10.4 µM.

As to `C=C1CO[C@@H](OC)[C@]12C[C@@H]1[C@H](O)CC[C@@H](C)[C@]1(C)[C@H]2O` (racemic) [Compound 11b, (1′R,2R,2′R,3a′S,4′R,7′R,7a′S)-2-methoxy-7′,7a′-dimethyl-4-methylenedecahydro-2H-spiro[furan-3,2′-indene]-1′,4′-diol], the IC50 was 4.28 µM.

For `C=C1CO[C@@H](OC)[C@]12C[C@@H]1[C@@H](O)CC[C@@H](C)[C@]1(C)[C@H]2O` (racemic) [Compound 11c, (1′R,2R,2′R,3a′S,4′S,7′R,7a′S)-2-methoxy-7′,7a′-dimethyl-4-methylenedecahydro-2H-spiro[furan-3,2′-indene]-1′,4′-diol], the IC50 is 13.8 µM.

As to `C=C1CO[C@@H](OC)[C@]12C[C@@H]1[C@@H]3O[C@@H]3C[C@@H](C)[C@]1(C)[C@H]2O` (racemic) [Compound 10, (1a′R,2R,3R,3′R,3a′S,4′R,6a′S,6b′S)-2-methoxy-3′,3a′-dimethyl-4-methylenedecahydro-2H-spiro[furan-3,5′-indeno[4,5-b]oxiren]-4′-ol], the IC50 is 15.8 µM.

In the case of `C=C1CO[C@@H](OC)[C@]12C[C@@H]1C=CC[C@@H](C)[C@]1(C)[C@H]2O` (racemic) [Compound 9, (2R,2′R,3′R,3a′S,4′R,7a′R)-2-methoxy-3a′,4′-dimethyl-4-methylene 1′,3′,3a′,4,4′,5,5′,7a′-octahydro-2H-spiro[furan-3,2′-inden]-3′-ol], the IC50 is 18.7 µM.

`C=C1CO[C@@H](OC)[C@]12C[C@@H]1CCC[C@@H](C)[C@]1(C)[C@H]2O` (racemic) [Compound 20, (1′R,2R,2′R,3a′S,7′R,7a′S)-2-methoxy-7′,7a′-dimethyl-4-methylenedecahydro-2H-spiro[furan-3,2′-inden]-1′-ol]: the IC50 is 11 µM.
